Experimental data as given in patent US11932608B1, “4-((2-(2-(2-(4-hydroxyphenyl)-4,5-diphenyl-1H-imidazol-1-yl)acetyl)hydrazono)methyl)benzoic acid as an anticancer compound” (KING FAISAL UNIVERSITY, priority 2023, dated 2024).

How the values were obtained:
A549/ATCC = assay: Percentage growth inhibition of in vitro subpanel tumor cell lines; format: cell-based; conditions: Homo sapiens, 0.01 mM, Non-Small Cell Lung Cancer, read-out: Percentage growth inhibition (GI %)
Procedure: (§1) The anticancer activity of 4-((2-(2-(2-(4-hydroxyphenyl)-4,5-diphenyl-1H-imidazol-1-yl)acetyl)hydrazono)methyl)benzoic acid was assessed against leukemia, non-small cell lung cancer, colon cancer, central nervous system (CNS) cancer, melanoma, ovarian cancer, renal cancer, prostate cancer, and breast cancer.
(§2) Percentage growth inhibition (GI %) of in vitro subpanel tumor cell lines at 0.01 mM concentration for compound 4-((2-(2-(2-(4-hydroxyphenyl)-4,5-diphenyl-1H-imidazol-1-yl)acetyl)hydrazono)methyl)benzoic acid (Labeled as AE21 in the table) can be seen in Table 1 below.

ACHN = assay: as above; format: cell-based; conditions: Homo sapiens, 0.01 mM, Renal Cancer, read-out: Percentage growth inhibition (GI %)
Procedure: as §1, §2

BT-549 = assay: as above; format: cell-based; conditions: Homo sapiens; 0.01 mM; BT-549, Breast Cancer; read-out: Percentage growth inhibition (GI %)
Procedure: as §1, §2

CAKI-1 = assay: as above; format: cell-based; conditions: Homo sapiens; 0.01 mM; CAKI-1, Renal Cancer; read-out: Percentage growth inhibition (GI %)
Procedure: as §1, §2

CCRF-CEM = assay: as above; format: cell-based; conditions: Homo sapiens, 0.01 mM, Leukemia, read-out: Percentage growth inhibition (GI %)
Procedure: as §1, §2

DU-145 = assay: as above; format: cell-based; conditions: Homo sapiens; 0.01 mM; DU-145, Prostate Cancer; read-out: Percentage growth inhibition (GI %)
Procedure: as §1, §2

EKVX = assay: as above; format: cell-based; conditions: Homo sapiens, 0.01 mM, Non-Small Cell Lung Cancer, read-out: Percentage growth inhibition (GI %)
Procedure: as §1, §2

HCC-2998 = assay: as above; format: cell-based; conditions: Homo sapiens; 0.01 mM; HCC-2998, Colon Cancer; read-out: Percentage growth inhibition (GI %)
Procedure: as §1, §2

HCT-116 = assay: as above; format: cell-based; conditions: Homo sapiens; 0.01 mM; HCT-116, Colon Cancer; read-out: Percentage growth inhibition (GI %)
Procedure: as §1, §2

HCT-15 = assay: as above; format: cell-based; conditions: Homo sapiens; 0.01 mM; HCT-15, Colon Cancer; read-out: Percentage growth inhibition (GI %)
Procedure: as §1, §2

HL-60(TB) = assay: as above; format: cell-based; conditions: Homo sapiens, 0.01 mM, Leukemia, read-out: Percentage growth inhibition (GI %)
Procedure: as §1, §2

HOP-62 = assay: as above; format: cell-based; conditions: Homo sapiens; 0.01 mM; HOP-62, Non-Small Cell Lung Cancer; read-out: Percentage growth inhibition (GI %)
Procedure: as §1, §2

HS 578T = assay: as above; format: cell-based; conditions: Homo sapiens, 0.01 mM, Breast Cancer, read-out: Percentage growth inhibition (GI %)
Procedure: as §1, §2

HT29 = assay: as above; format: cell-based; conditions: Homo sapiens, HT-29; 0.01 mM; HT29, Colon Cancer; read-out: Percentage growth inhibition (GI %)
Procedure: as §1, §2

IGROV1 = assay: as above; format: cell-based; conditions: Homo sapiens, IGROV-1; 0.01 mM; IGROV1, Ovarian Cancer; read-out: Percentage growth inhibition (GI %)
Procedure: as §1, §2

K-562 = assay: as above; format: cell-based; conditions: Homo sapiens, K562; 0.01 mM; K-562, Leukemia; read-out: Percentage growth inhibition (GI %)
Procedure: as §1, §2

KM12 = assay: as above; format: cell-based; conditions: Homo sapiens; 0.01 mM; KM12, Colon Cancer; read-out: Percentage growth inhibition (GI %)
Procedure: as §1, §2

LOX IMVI = assay: as above; format: cell-based; conditions: Homo sapiens, 0.01 mM, Melanoma, read-out: Percentage growth inhibition (GI %)
Procedure: as §1, §2

M14 = assay: as above; format: cell-based; conditions: Homo sapiens; 0.01 mM; M14, Melanoma; read-out: Percentage growth inhibition (GI %)
Procedure: as §1, §2

MCF7 = assay: as above; format: cell-based; conditions: Homo sapiens; 0.01 mM; MCF7, Breast Cancer; read-out: Percentage growth inhibition (GI %)
Procedure: as §1, §2

MDA-MB-231/ATCC = assay: as above; format: cell-based; conditions: Homo sapiens, 0.01 mM, Breast Cancer, read-out: Percentage growth inhibition (GI %)
Procedure: as §1, §2

MDA-MB-435 = assay: as above; format: cell-based; conditions: Homo sapiens; 0.01 mM; MDA-MB-435, Melanoma; read-out: Percentage growth inhibition (GI %)
Procedure: as §1, §2

MOLT-4 = assay: as above; format: cell-based; conditions: Homo sapiens; 0.01 mM; MOLT-4, Leukemia; read-out: Percentage growth inhibition (GI %)
Procedure: as §1, §2

NCI-H226 = assay: as above; format: cell-based; conditions: Homo sapiens; 0.01 mM; NCI-H226, Non-Small Cell Lung Cancer; read-out: Percentage growth inhibition (GI %)
Procedure: as §1, §2

NCI-H23 = assay: as above; format: cell-based; conditions: Homo sapiens; 0.01 mM; NCI-H23, Non-Small Cell Lung Cancer; read-out: Percentage growth inhibition (GI %)
Procedure: as §1, §2

NCI-H460 = assay: as above; format: cell-based; conditions: Homo sapiens; 0.01 mM; NCI-H460, Non-Small Cell Lung Cancer; read-out: Percentage growth inhibition (GI %)
Procedure: as §1, §2

NCI-H522 = assay: as above; format: cell-based; conditions: Homo sapiens; 0.01 mM; NCI-H522, Non-Small Cell Lung Cancer; read-out: Percentage growth inhibition (GI %)
Procedure: as §1, §2

NCI/ADR-RES = assay: as above; format: cell-based; conditions: Homo sapiens, 0.01 mM, Ovarian Cancer, read-out: Percentage growth inhibition (GI %)
Procedure: as §1, §2

OVCAR-4 = assay: as above; format: cell-based; conditions: Homo sapiens; 0.01 mM; OVCAR-4, Ovarian Cancer; read-out: Percentage growth inhibition (GI %)
Procedure: as §1, §2

OVCAR-5 = assay: as above; format: cell-based; conditions: Homo sapiens; 0.01 mM; OVCAR-5, Ovarian Cancer; read-out: Percentage growth inhibition (GI %)
Procedure: as §1, §2

OVCAR-8 = assay: as above; format: cell-based; conditions: Homo sapiens; 0.01 mM; OVCAR-8, Ovarian Cancer; read-out: Percentage growth inhibition (GI %)
Procedure: as §1, §2

PC-3 = assay: as above; format: cell-based; conditions: Homo sapiens; 0.01 mM; PC-3, Prostate Cancer; read-out: Percentage growth inhibition (GI %)
Procedure: as §1, §2

RPMI-8226 = assay: as above; format: cell-based; conditions: Homo sapiens; 0.01 mM; RPMI-8226, Leukemia; read-out: Percentage growth inhibition (GI %)
Procedure: as §1, §2

SF-268 = assay: as above; format: cell-based; conditions: Homo sapiens; 0.01 mM; SF-268, CNS Cancer; read-out: Percentage growth inhibition (GI %)
Procedure: as §1, §2

SF-295 = assay: as above; format: cell-based; conditions: Homo sapiens; 0.01 mM; SF-295, CNS Cancer; read-out: Percentage growth inhibition (GI %)
Procedure: as §1, §2

SF-539 = assay: as above; format: cell-based; conditions: Homo sapiens; 0.01 mM; SF-539, CNS Cancer; read-out: Percentage growth inhibition (GI %)
Procedure: as §1, §2

SK-MEL-5 = assay: as above; format: cell-based; conditions: Homo sapiens; 0.01 mM; SK-MEL-5, Melanoma; read-out: Percentage growth inhibition (GI %)
Procedure: as §1, §2

SN12C = assay: as above; format: cell-based; conditions: Homo sapiens, 0.01 mM, Renal Cancer, read-out: Percentage growth inhibition (GI %)
Procedure: as §1, §2

SNB-75 = assay: as above; format: cell-based; conditions: Homo sapiens; 0.01 mM; SNB-75, CNS Cancer; read-out: Percentage growth inhibition (GI %)
Procedure: as §1, §2

SW-620 = assay: as above; format: cell-based; conditions: Homo sapiens; 0.01 mM; SW-620, Colon Cancer; read-out: Percentage growth inhibition (GI %)
Procedure: as §1, §2

T-47D = assay: as above; format: cell-based; conditions: Homo sapiens, T47D, 0.01 mM, Breast Cancer, read-out: Percentage growth inhibition (GI %)
Procedure: as §1, §2

U251 = assay: as above; format: cell-based; conditions: Homo sapiens, U-251; 0.01 mM; U251, CNS Cancer; read-out: Percentage growth inhibition (GI %)
Procedure: as §1, §2

UACC-257 = assay: as above; format: cell-based; conditions: Homo sapiens; 0.01 mM; UACC-257, Melanoma; read-out: Percentage growth inhibition (GI %)
Procedure: as §1, §2

UO-31 = assay: as above; format: cell-based; conditions: Homo sapiens; 0.01 mM; UO-31, Renal Cancer; read-out: Percentage growth inhibition (GI %)
Procedure: as §1, §2

For `O=C(Cn1c(-c2ccc(O)cc2)nc(-c2ccccc2)c1-c1ccccc1)N/N=C/c1ccc(C(=O)O)cc1` [AE21, 4-((2-(2-(2-(4-hydroxyphenyl)-4,5-diphenyl-1H-imidazol-1-yl)acetyl)hydrazono)methyl)benzoic acid], the inhibition at 10 µM (A549/ATCC) was 64.9%, the inhibition at 10 µM (ACHN) was 57.2% and the inhibition at 10 µM (BT-549) was 11.9%. For the same compound, the inhibition at 10 µM (CAKI-1) was 8.34%, the inhibition at 10 µM (CCRF-CEM) was 78.4% and the inhibition at 10 µM (DU-145) was 43%. For the same compound, the inhibition at 10 µM (EKVX) was 32.1%, the inhibition at 10 µM (HCC-2998) was 6.33% and the inhibition at 10 µM (HCT-116) was 50.7%. It also gave an inhibition at 10 µM (HCT-15) of 51.7%, an inhibition at 10 µM (HL-60(TB)) of 53.6% and an inhibition at 10 µM (HOP-62) of 7.6%. The inhibition at 10 µM (HS 578T) was 22.5%, the inhibition at 10 µM (HT29) was 55.4% and the inhibition at 10 µM (IGROV1) was 4.51%. For the same compound, the inhibition at 10 µM (K-562) was 44.7%, the inhibition at 10 µM (KM12) was 16.2% and the inhibition at 10 µM (LOX IMVI) was 33.4%. For the same compound, the inhibition at 10 µM (M14) was 16.5%, the inhibition at 10 µM (MCF7) was 81.1% and the inhibition at 10 µM (MDA-MB-231/ATCC) was 25.6%. For the same compound, the inhibition at 10 µM (MDA-MB-435) was 16.6%, the inhibition at 10 µM (MOLT-4) was 70.1% and the inhibition at 10 µM (NCI-H226) was 11.4%. It also gave an inhibition at 10 µM (NCI-H23) of 4.14%, an inhibition at 10 µM (NCI-H460) of 82.4% and an inhibition at 10 µM (NCI-H522) of 35.3%. For the same compound, the inhibition at 10 µM (NCI/ADR-RES) was 2.67%, the inhibition at 10 µM (OVCAR-4) was 15% and the inhibition at 10 µM (OVCAR-5) was 11.7%. The inhibition at 10 µM (OVCAR-8) was 49%, the inhibition at 10 µM (PC-3) was 43.2% and the inhibition at 10 µM (RPMI-8226) was 21.4%. It also gave an inhibition at 10 µM (SF-268) of 11.7%, an inhibition at 10 µM (SF-295) of 29.4% and an inhibition at 10 µM (SF-539) of 3.59%. It also gave an inhibition at 10 µM (SK-MEL-5) of 8.04%, an inhibition at 10 µM (SN12C) of 47.8% and an inhibition at 10 µM (SNB-75) of 13.8%. The inhibition at 10 µM (SW-620) was 67.6%, the inhibition at 10 µM (T-47D) was 22.7% and the inhibition at 10 µM (U251) was 48.5%. For the same compound, the inhibition at 10 µM (UACC-257) was 2.54%, the inhibition at 10 µM (UO-31) was 12.8% and the melting point was 220 to 222 °C.
